Laboratory results from ChEMBL document CHEMBL1142214, “Synergistic interaction between phenothiazines and antimicrobial agents against Burkholderia pseudomallei” (2007).
Activity calls are given as the source filed them.

Legend:
[1] = tested on: Burkholderia pseudomallei; assay: Attenuation of A549 cell invasion by Burkholderia pseudomallei KHW at 8 ug/ml; type: functional, organism-based
[2] = tested on: Burkholderia pseudomallei; assay: Antimicrobial activity against Burkholderia pseudomallei KHW in presence of 500 uM prochlorperazine; type: functional
[3] = tested on: Burkholderia pseudomallei; assay: Antimicrobial activity against Burkholderia pseudomallei KHW in presence of 31.3 uM chlorpromazine; type: functional
[4] = tested on: Burkholderia pseudomallei; assay: Antimicrobial activity against Burkholderia pseudomallei KHW in presence of 1000 uM promazine; type: functional
[5] = tested on: Burkholderia pseudomallei; assay: Attenuation of Burkholderia pseudomallei KHW cytotoxicity in THP1 cells at 8 ug/ml in presence of 500 uM chlorpromazine; type: functional, organism-based; settings: THP-1
[6] = tested on: Burkholderia pseudomallei; assay: Antimicrobial activity against Burkholderia pseudomallei KHW in presence of 3.9 uM chlorpromazine; type: functional
[7] = tested on: Burkholderia pseudomallei; assay: Antimicrobial activity against Burkholderia pseudomallei KHW in presence of 1000 uM omeprazole; type: functional
[8] = tested on: Burkholderia pseudomallei; assay: Antimicrobial activity against Burkholderia pseudomallei KHW in presence of 15.6 uM omeprazole; type: functional
[9] = tested on: Burkholderia pseudomallei; assay: Antimicrobial activity against Burkholderia pseudomallei KHW in presence of 125 uM omeprazole; type: functional
[10] = tested on: Burkholderia pseudomallei; assay: Antimicrobial activity against Burkholderia pseudomallei KHW in presence of 15.6 uM prochlorperazine; type: functional
[11] = tested on: Burkholderia pseudomallei; assay: Attenuation of A549 cell invasion by Burkholderia pseudomallei KHW at 128 ug/ml; type: functional, organism-based
[12] = tested on: Burkholderia pseudomallei; assay: Attenuation of THP1 cell invasion by Burkholderia pseudomallei KHW at 8 ug/ml; type: functional, organism-based; settings: THP-1
[13] = tested on: Burkholderia pseudomallei; assay: Antimicrobial activity against Burkholderia pseudomallei KHW in presence of 125 uM promazine; type: functional
[14] = tested on: Burkholderia pseudomallei; assay: Attenuation of Burkholderia pseudomallei KHW cytotoxicity in A549 cells at 128 ug/ml; type: functional, organism-based
[15] = tested on: Burkholderia pseudomallei; assay: Attenuation of A549 cell invasion by Burkholderia pseudomallei KHW at 8 ug/ml in presence of 250 uM prochlorperazine; type: functional, organism-based
[16] = tested on: Burkholderia pseudomallei; assay: Antimicrobial activity against Burkholderia pseudomallei KHW in presence of 31.3 uM prochlorperazine; type: functional
[17] = tested on: Burkholderia pseudomallei; assay: Attenuation of THP1 cell invasion by Burkholderia pseudomallei KHW at 8 ug/ml in presence of 500 uM chlorpromazine; type: functional, organism-based; settings: THP-1
[18] = tested on: Burkholderia pseudomallei; assay: Antimicrobial activity against Burkholderia pseudomallei KHW in presence of 62.5 uM omeprazole; type: functional
[19] = tested on: Burkholderia pseudomallei; assay: Antimicrobial activity against Burkholderia pseudomallei KHW in presence of 1000 uM chlorpromazine; type: functional
[20] = tested on: Burkholderia pseudomallei; assay: Attenuation of Burkholderia pseudomallei KHW cytotoxicity in THP1 cells at 8 ug/ml in presence of 250 uM prochlorperazine; type: functional, organism-based; settings: THP-1
[21] = tested on: Burkholderia pseudomallei; assay: Attenuation of THP1 cell invasion by Burkholderia pseudomallei KHW at 128 ug/ml; type: functional, organism-based; settings: THP-1
[22] = tested on: Burkholderia pseudomallei; assay: Antimicrobial activity against Burkholderia pseudomallei KHW in presence of 7.8 uM promazine; type: functional
[23] = tested on: Burkholderia pseudomallei; assay: Antimicrobial activity against Burkholderia pseudomallei KHW in presence of 31.3 uM promazine; type: functional
[24] = tested on: Burkholderia pseudomallei; assay: Antimicrobial activity against Burkholderia pseudomallei KHW in presence of 500 uM omeprazole; type: functional
[25] = tested on: Burkholderia pseudomallei; assay: Antimicrobial activity against Burkholderia pseudomallei KHW in presence of 62.5 uM chlorpromazine; type: functional
[26] = tested on: Burkholderia pseudomallei; assay: Antimicrobial activity against Burkholderia pseudomallei KHW in presence of 7.8 uM chlorpromazine; type: functional
[27] = tested on: Burkholderia pseudomallei; assay: Antimicrobial activity against Burkholderia pseudomallei KHW in presence of 7.8 uM prochlorperazine; type: functional
[28] = tested on: Burkholderia pseudomallei; assay: Antimicrobial activity against Burkholderia pseudomallei KHW in presence of 250 uM omeprazole; type: functional
[29] = tested on: Burkholderia pseudomallei; assay: Antimicrobial activity against Burkholderia pseudomallei KHW in presence of 62.5 uM promazine; type: functional
[30] = tested on: Burkholderia pseudomallei; assay: Attenuation of Burkholderia pseudomallei KHW cytotoxicity in THP1 cells at 128 ug/ml; type: functional, organism-based; settings: THP-1
[31] = tested on: Burkholderia pseudomallei; assay: Antimicrobial activity against Burkholderia pseudomallei KHW in presence of 250 uM prochlorperazine; type: functional
[32] = tested on: Burkholderia pseudomallei; assay: Antimicrobial activity against Burkholderia pseudomallei KHW in presence of 1000 uM prochlorperazine; type: functional
[33] = tested on: Burkholderia pseudomallei; assay: Antimicrobial activity against Burkholderia pseudomallei KHW in presence of 7.8 uM omeprazole; type: functional
[34] = tested on: Burkholderia pseudomallei; assay: Antimicrobial activity against Burkholderia pseudomallei KHW in presence of 3.9 uM omeprazole; type: functional
[35] = tested on: Burkholderia pseudomallei; assay: Attenuation of Burkholderia pseudomallei KHW cytotoxicity in A549 cells at 8 ug/ml in presence of 250 uM prochlorperazine; type: functional, organism-based
[36] = tested on: Burkholderia pseudomallei; assay: Antimicrobial activity against Burkholderia pseudomallei KHW; type: functional
[37] = tested on: Burkholderia pseudomallei; assay: Attenuation of A549 cell invasion by Burkholderia pseudomallei KHW at 8 ug/ml in presence of 500 uM chlorpromazine; type: functional, organism-based
[38] = tested on: Burkholderia pseudomallei; assay: Antimicrobial activity against Burkholderia pseudomallei KHW in presence of 3.9 uM promazine; type: functional
[39] = tested on: Burkholderia pseudomallei; assay: Antimicrobial activity against Burkholderia pseudomallei KHW in presence of 31.3 uM omeprazole; type: functional
[40] = tested on: Burkholderia pseudomallei; assay: Antimicrobial activity against Burkholderia pseudomallei KHW in presence of 15.6 uM chlorpromazine; type: functional
[41] = tested on: Burkholderia pseudomallei; assay: Antimicrobial activity against Burkholderia pseudomallei KHW in presence of 125 uM chlorpromazine; type: functional
[42] = tested on: Burkholderia pseudomallei; assay: Antimicrobial activity against Burkholderia pseudomallei KHW in presence of 500 uM chlorpromazine; type: functional
[43] = tested on: Burkholderia pseudomallei; assay: Antimicrobial activity against Burkholderia pseudomallei KHW in presence of 3.9 uM prochlorperazine; type: functional
[44] = tested on: Burkholderia pseudomallei; assay: Antimicrobial activity against Burkholderia pseudomallei KHW in presence of 250 uM promazine; type: functional
[45] = tested on: Burkholderia pseudomallei; assay: Antimicrobial activity against Burkholderia pseudomallei KHW in presence of 15.6 uM promazine; type: functional
[46] = tested on: Burkholderia pseudomallei; assay: Attenuation of THP1 cell invasion by Burkholderia pseudomallei KHW at 8 ug/ml in presence of 250 uM prochlorperazine; type: functional, organism-based; settings: THP-1
[47] = tested on: Burkholderia pseudomallei; assay: Attenuation of Burkholderia pseudomallei KHW cytotoxicity in A549 cells at 8 ug/ml in presence of 500 uM chlorpromazine; type: functional, organism-based

CC[C@H]1OC(=O)[C@H](C)[C@@H](O[C@H]2C[C@@](C)(OC)[C@@H](O)[C@H](C)O2)[C@H](C)[C@@H](O[C@@H]2O[C@H](C)C[C@H](N(C)C)[C@H]2O)[C@](C)(O)C[C@@H](C)C(=O)[C@H](C)[C@@H](O)[C@]1(C)O [ERYTHROMYCIN]
8 µg/mL: MIC [2] | MIC [31] | MIC [32] | MIC [42]
< 0.25 µg/mL: MIC [4] | MIC [7] | MIC [19]
128 µg/mL: MIC [3] | MIC [6] | MIC [8] | MIC [9] | MIC [13] | MIC [18] | MIC [22] | MIC [23] | MIC [24] | MIC [25] | MIC [26] | MIC [27] | MIC [28] | MIC [29] | MIC [33] | MIC [34] | MIC [36] | MIC [38] | MIC [39] | MIC [40] | MIC [41] | MIC [43] | MIC [45]
active: Activity [5] | Activity [11] | Activity [14] | Activity [15] | Activity [17] | Activity [20] | Activity [21] | Activity [30] | Activity [35] | Activity [37] | Activity [46] | Activity [47]
64 µg/mL: MIC [10] | MIC [16] | MIC [44]
inactive: Activity [1] | Activity [12]
